Source: patent US20140039004A1, “METHOD OF TREATING OF GASTROESOPHAGEAL REFLUX DISEASE” (ONO PHARMACEUTICAL CO., LTD., priority 2012, published 2014)
Where two headings read alike, the source gives them in different places.

Experiments:
Format in all cases: in vivo, Cynomolgus monkeys
[1] = system: hypersensitivity in the esophagus evoked by hydrochloric acid perfusion; assay: Hypersensitivity model evoked by acid (nociceptive threshold to esophageal electrical stimulation)
Description: Cynomolgus monkeys (aged 4 to 6 years, female, Japan Laboratory Animals, Inc., no history of administration) were acclimated to a monkey chair for 2 days or more, and were fasted for 12 hours or more. After that, on the day of experiment, the monkeys were immobilized in the monkey chair after the measurement of body weight, and were acclimated for another one hour or more. An electrostimulation catheter was inserted from a nostril, and electrical stimulation was applied at the position approximately 10 cm above the cardiac part of stomach (the upper esophagus). […] This was carried out three times every 2 to 3 minutes at each evaluation time point, and the average value was used as a nociceptive threshold at each time point. Saline or hydrochloric acid (1.5 N) was perfused from the position approximately 3 cm above the cardiac region (the lower esophagus) to the stomach at an injection rate of 160 mL/h for 30 minutes. The nociceptive thresholds were measured before and after perfusion of saline in the esophagus, before perfusion of hydrochloric acid in the esophagus and at 0, 30, 60, 90 and 120 minutes after perfusion of hydrochloric acid in the esophagus. The vehicle or Compound A (0.01 and 0.1 mg/kg, respectively) was subcutaneously administered 30 minutes before the start of the perfusion of hydrochloric acid. […] The endpoint was assessed by comparing the nociceptive thresholds before and after perfusion of hydrochloric acid, the nociceptive threshold of the vehicle-administered group at each time point and the nociceptive threshold of the Compound A-administered group at each time point. […]

[2] = system: hypersensitivity in the esophagus evoked by continuous electrical stimulation; assay: Hypersensitivity model evoked by electrical stimulation (nociceptive threshold)
Description: Cynomolgus monkeys (aged 4 to 6 years, female, Japan Laboratory Animals, Inc., no history of administration) were acclimated to a monkey chair for 2 days or more, and were fasted for 12 hours or more. After that, on the day of experiment, the monkeys were immobilized in the monkey chair after the measurement of body weight, and were acclimated for another one hour or more. An electrostimulation catheter was inserted from a nostril, and electrical stimulation was applied at the position approximately 10 cm above the cardiac part of stomach (the upper esophagus). […] This was carried out three times every 2 to 3 minutes at each evaluation time point, and the average value was used as a nociceptive behavior threshold at each time point. Hypersensitivity was induced by continuous electrical stimulation to the position approximately 3 cm above the cardiac region (the lower esophagus). That is, an electrostimulation catheter was inserted from a nostril, and electrical stimulation was applied at the position of the lower esophagus for 30 minutes. […] The endpoint was assessed by comparing the nociceptive thresholds before and after continuous electrical stimulation, the nociceptive threshold of the vehicle-administered group at each time point and the nociceptive threshold of the Compound A-administered group at each time point. […]

[3] = Evaluation of penetration into the center (plasma, CSF and tissue concentration by LC/MS/MS); conditions: female, cynomolgus monkey, subcutaneous, 0.1 mg/kg s.c., 180 minutes after administration; for concentration at 180 min: n=3
Description: Cynomolgus monkeys (aged 4 to 6 years, female, Japan Laboratory Animals, Inc., no history of administration) were immobilized in a monkey chair, and Compound A was subcutaneously administered thereto (0.1 mg/kg), followed by collecting blood at 180 minutes after administration. The blood samples were centrifuged at 10000 g at 4° C. for 3 minutes to collect plasma. Next, the cerebrospinal fluid was collected under anesthesia by intravenous administration of pentobarbital sodium, and the lower esophagus, the upper esophagus, the dorsal root ganglion, the spinal cord and the brain stem were then collected. Furthermore, the dorsal root ganglion and the spinal cord were collected from the first to sixth thoracic spinal cord, which controls esophageal nerves. To the collected tissue, 4 times the amount of saline per wet weight of each tissue was added, followed by homogenization using Physcotron to obtain each tissue homogenate. The number of animals was 3.
The concentration of Compound A in each tissue was measured by a LC/MS/MS method.
To the samples for 50 μL of a calibration curve and test samples of Compound A, 1 mL of ultrapure water and an internal standard substance were added under ice cold conditions, followed by stirring. To a solid phase extraction cartridge (OAS1S MAX 30 mg/1 cc, Waters Corporation) which had been conditioned in advance, each sample was loaded and washing was carried out, followed by centrifugation, and a cleaning liquid was discharged from the cartridge for drying. Further, elution was carried out with 1 mL of an acetonitrile/acetic acid mixed liquid (49:1), and the eluate was concentrated and dried under a current of nitrogen (40° C. or less). The residue was redissolved in 200 μL of a methanol/0.1 vol % acetic acid solution (70: 30) to obtain a sample for the measurement of LC/MS/MS.
The analysis by LC/MS/MS was carried out under the following conditions.
Measuring device: Nanospace 3033 (Shiseido Co., Ltd.) Analysis column: SunFire C18 3.5 μm (2.1 mm i.d.×100 mm, 3.5 μm, Waters Corporation) Mobile phase: Acetonitrile/0.1 vol % acetic acid solution (70: 30) Cleaning liquid for cleaning port (one component): 2-propanol Cleaning liquid for cleaning port (two components): Mobile phase [acetonitrile/0.1 vol % acetic acid solution (70: 30)] Flow rate: 0.2 mL/min Column temperature: 35° C. Sample temperature: 4° C. Analysis time: 13 minutes
Measuring device: API4000 (AB SCIEX) Ion source: ESI Scan type: MRM
Using the peak area ratio (standard substance/internal standard substance) obtained by the measurement of a sample for a calibration curve, the calibration curve (y=aX+b, Y: Peak area ratio, X: Concentration) was made from the single regression line by the least squares method, and the peak area ratios of test samples were applied to the calibration curve to calculate a measured value.

[4] = system: transient lower esophageal sphincter relaxation; assay: Action on transient lower esophageal sphincter relaxation (TLESR) (2); conditions: 0.01 and 0.1 mg/kg s.c. 30 min before high-fat diet and air injection; measured for 45 minutes; vs vehicle-administered group; FIG. 3
Description: Cynomolgus monkeys (aged 4 to 6 years, female, Japan Laboratory Animals, Inc., no history of administration) were acclimated to a monkey chair for 2 days or more, and were fasted for 12 hours or more. After that, on the day of experiment, the monkeys were immobilized in the monkey chair after the measurement of body weight, and was acclimated for another one hour or more. A high-fat diet/air injection catheter and a sensor catheter for measuring pressure were inserted from a nostril and the oral cavity. A high-fat diet was injected into the stomach so that the final volume would be 80 mL, and air was then injected up to a pressure in the stomach of 20 mmHg, and maintained. The pressure in the esophagus was measured by a sensor catheter in the lower esophageal sphincter region and the positions approximately 2, 3 and 6 cm above the lower esophageal sphincter. […] The frequency of TLESR was measured for 45 minutes from the injection of high-fat diet to the end of ventilation. Here, TLESR was measured considering that the relaxation response of the lower esophageal sphincter region was longer by […] and was not elicited by peristaltic motion occurring in the esophagus, and the rate of reduction of pressure was greater than […], and measured. […]

Cc1cc(C(=O)O)ccc1COc1cc2c(cc1N(CC(C)C)S(=O)(=O)c1nccs1)CCC2 [Compound A, 4-[({6-[isobutyl(1,3-thiazol-2-ylsulfonyl)amino]-2,3-dihydro-1H-inden-5-yl}oxy)methyl]-3-methyl benzoic acid]
nociceptive threshold after hydrochloric acid perfusion ([1]; 0.1 mg/kg s.c. 30 min before HCl perfusion, FIG. 1): suppressed to a normal level | decrease in nociceptive threshold after hydrochloric acid perfusion ([1]; Compound A 0.01 and 0.1 mg/kg s.c. 30 min before HCl (1.5 N) perfusion, vs control group, FIG. 1): dose-dependently suppressed | duration of suppressive action after hydrochloric acid perfusion ([1]; Compound A-administered groups, s.c., time after end of HCl perfusion): ≥ 120 min | decrease in nociceptive threshold after continuous electrical stimulation ([2]; 0.1 mg/kg s.c. 30 min before 30 min electrical stimulation of lower esophagus, FIG. 2): suppressed to a normal level | duration of suppressive action after continuous electrical stimulation ([2]; 0.1 mg/kg s.c., time after end of continuous electrical stimulation): ≥ 120 min | Kp at 180 min ([3]; brain stem / plasma, read-out: percentage to the concentration in plasma, brain stem tissue): 0.057 | concentration at 180 min ([3]; brain stem, tissue homogenate, read-out: average concentration in brain stem tissue): 0.22 ng/mL | Kp at 180 min ([3]; cerebrospinal fluid / plasma, read-out: percentage to the concentration in plasma, cerebrospinal fluid): 0.019 | concentration at 180 min ([3]; cerebrospinal fluid, read-out: average concentration in cerebrospinal fluid): 0.07 ng/mL | Kp at 180 min ([3]; dorsal root ganglion / plasma, read-out: percentage to the concentration in plasma, dorsal root ganglion): 0.163 | concentration at 180 min ([3]; dorsal root ganglion, tissue homogenate, read-out: average concentration in dorsal root ganglion): 0.62 ng/mL | Kp at 180 min ([3]; lower esophagus / plasma, read-out: percentage to the concentration in plasma, lower esophagus): 0.067 | concentration at 180 min ([3]; lower esophagus, tissue homogenate, read-out: average concentration in lower esophagus): 0.25 ng/mL | concentration at 180 min ([3]; plasma, read-out: average concentration in plasma): 3.79 ng/mL | Kp at 180 min ([3]; spinal cord / plasma, read-out: percentage to the concentration in plasma, spinal cord): 0.051 | concentration at 180 min ([3]; spinal cord, tissue homogenate, read-out: average concentration in spinal cord): 0.19 ng/mL | Kp at 180 min ([3]; upper esophagus / plasma, read-out: percentage to the concentration in plasma, upper esophagus): 0.073 | concentration at 180 min ([3]; upper esophagus, tissue homogenate, read-out: average concentration in upper esophagus): 0.28 ng/mL | frequency of TLESR [4]: dose-dependently decreased
